Laboratory results reported in patent publication US20230416849A1, “METHODS FOR DETECTING VIRAL RNA USING ATP-RELEASING NUCLEOTIDES” (priority 2020, published 2023).

Target: luciferase (Photinus pyralis, UniProt P08659)
Experiment: Reactivity of apyrase ATP-depleted nucleotide stocks with luciferase (background signal)
Format: biochemical
Excerpt: ARNs were investigated as a source of background signal. There are two possible sources of background resulting from ARNs: (1) residual ATP contamination from the insufficient purification, and (2) the potential for these nucleotides to be accepted as substrates by luciferase. While ATP contamination can be removed, the kinetics of a nucleotide to react with luciferase is intrinsic to the molecule and thus much more difficult to manipulate. Apyrase was used to deplete nucleotide stocks of ATP in order to compare their reactivity with luciferase. […] However, dCp4A had high levels of ATP contamination.

luciferase, sequence (P08659 whole entry): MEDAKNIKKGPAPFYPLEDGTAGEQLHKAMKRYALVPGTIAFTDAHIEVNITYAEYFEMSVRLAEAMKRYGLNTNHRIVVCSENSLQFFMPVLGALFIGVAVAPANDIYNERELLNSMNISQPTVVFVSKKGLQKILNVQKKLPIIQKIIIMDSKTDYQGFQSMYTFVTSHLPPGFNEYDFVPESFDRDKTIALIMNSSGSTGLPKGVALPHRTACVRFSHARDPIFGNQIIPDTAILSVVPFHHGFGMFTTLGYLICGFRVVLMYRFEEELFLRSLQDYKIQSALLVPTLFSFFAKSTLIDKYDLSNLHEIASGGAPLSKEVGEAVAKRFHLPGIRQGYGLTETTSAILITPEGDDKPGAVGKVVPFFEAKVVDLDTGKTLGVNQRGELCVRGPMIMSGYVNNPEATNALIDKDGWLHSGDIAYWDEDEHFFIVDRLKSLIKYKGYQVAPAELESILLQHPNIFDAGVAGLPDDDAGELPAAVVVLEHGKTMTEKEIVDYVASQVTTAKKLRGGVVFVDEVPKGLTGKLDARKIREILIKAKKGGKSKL

Structure (SMILES) | activity with luciferase compared with pyrimidine counterparts (dCp4A and dTp4A)
Nc1ncnc2c1ncn2[C@@H]1O[C@H](COP(=O)(O)OP(=O)(O)OP(=O)(O)OP(=O)(O)OC[C@H]2O[C@@H](n3cnc4c(N)ncnc43)C[C@@H]2O)[C@@H](O)[C@H]1O [dAp4A, deoxyadenosine-5′-tetraphosphate-P4-5′-adenosine] | higher activity
Nc1nc2c(ncn2[C@H]2C[C@H](O)[C@@H](COP(=O)(O)OP(=O)(O)OP(=O)(O)OP(=O)(O)OC[C@H]3O[C@@H](n4cnc5c(N)ncnc54)[C@H](O)[C@@H]3O)O2)c(=O)[nH]1 [dGp4A, deoxyguanosine-5′-tetraphosphate-P4-5′-adenosine] | higher activity
